Here are results for 13 molecules from patent publication US9056876B2, “Substituted 1H-pyrazolo[3′,4′,4,5]thieno[2,3-b]pyridin-3-amine analogs as positive allosteric modulators of the muscarinic acetylcholine receptor M4” (VANDERBILT UNIVERSITY, priority 2011, dated 2015).

In this assay the target is T1, mAChR M4 (UniProt P08173).
T1 construct: hM1 and hM4 cDNAs were purchased from Missouri S&T cDNA Resource
T1 sequence (P08173 1-479): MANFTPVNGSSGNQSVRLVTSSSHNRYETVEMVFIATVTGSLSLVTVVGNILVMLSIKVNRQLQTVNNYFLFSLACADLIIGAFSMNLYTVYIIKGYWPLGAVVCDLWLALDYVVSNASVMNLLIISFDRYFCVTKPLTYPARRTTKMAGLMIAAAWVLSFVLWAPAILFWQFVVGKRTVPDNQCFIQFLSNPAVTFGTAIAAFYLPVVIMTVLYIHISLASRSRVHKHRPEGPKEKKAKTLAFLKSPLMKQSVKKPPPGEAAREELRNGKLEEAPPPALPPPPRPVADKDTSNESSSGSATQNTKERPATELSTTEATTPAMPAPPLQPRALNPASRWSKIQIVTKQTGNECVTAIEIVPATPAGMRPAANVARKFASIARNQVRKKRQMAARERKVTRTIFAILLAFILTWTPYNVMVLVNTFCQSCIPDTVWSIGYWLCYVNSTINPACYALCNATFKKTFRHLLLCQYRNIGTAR
The assay can be described thus: mAChR M4 cell-based functional assay (calcium mobilization, Fluo-4, FDSS). The conditions noted are these: for Emax (%)*: % ACh maximum at 30 μM; for pEC50: positive allosteric modulator activity, EC20 acetylcholine response; for pEC50 / EC50: CHO-K1 cells; for EC50: positive allosteric modulator activity: concentration-dependent increase in the EC20 acetylcholine response, >10 μM estimated for low potency (no plateau). The method, boiled down:
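CHO-K1 cells stably expressing hM4 or rM4 with chimeric Gqi5, loaded with Fluo-4 AM for 50 min at 37° C. Calcium read on FDSS 6000 over 300 s: compound added at 4 s, acetylcholine EC20 at 144 s and EC80 at 230 s. Agonist, PAM (EC20 increase) and antagonist (EC80 decrease) values fitted by four-parameter logistic.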

As a reminder, the pEC50 is the EC50 on a negative log10 scale, so that one unit is a factor of ten. Usually EC50 stands for the concentration at which the effect is half-maximal.

SMILES strings stand for the structures. Where only a bound is given, the exact number is not on record here.

On to `Cc1nc2sc3c(NCc4ccccc4)n[nH]c3c2c(C)c1Cl` [Compound 16, N-benzyl-7-chloro-6,8-dimethyl-1H-pyrazolo[3′,4′:4,5]thieno[2,3-b]pyridin-3-amine], for which the “Emax (%)*” value stood at 32%, the pEC50 was less than 5.00 and the concentration giving a half-maximal response (EC50) was more than 10 µM.

For `Cc1cc(C)c2c(n1)sc1c(NC3CCCSC3)nn(CCO)c12` (stereo not drawn) [Compound 113, 2-(6,8-dimethyl-3-((tetrahydro-2H-thiopyran-3-yl)amino)-1H-pyrazolo[3′,4′:4,5]thieno[2,3-b]pyridin-1-yl)ethanol], the “Emax (%)*” value was 62%, the pEC50 is on record as 6.37 and the EC50 is 0.43 µM.

For the molecule `COc1ccc(CNc2n[nH]c3c2sc2nc(C)cc(C)c23)cc1` [Compound 6, N-(4-methoxybenzyl)-6,8-dimethyl-1H-pyrazolo[3′,4′:4,5]thieno[2,3-b]pyridin-3-amine], the “Emax (%)*” value is recorded as 58%, the pEC50 turned out to be 5.94 and the EC50 is 1.15 µM.

On to `Cc1nc2sc3c(NCC4CCCCC4)n[nH]c3c2c(C)c1Cl` [Compound 142, 7-chloro-N-(cyclohexylmethyl)-6,8-dimethyl-1H-pyrazolo[3′,4′:4,5]thieno[2,3-b]pyridin-3-amine], for which the pEC50 is less than 5.00 and the EC50 was more than 10 µM.

In the case of `Cc1cc(C)c2c(n1)sc1c(NCc3nccs3)nn(C)c12` [Compound 100, 1,6,8-trimethyl-N-(thiazol-2-ylmethyl)-1H-pyrazolo[3′,4′:4,5]thieno[2,3-b]pyridin-3-amine], the “Emax (%)*” value was found to be 47%, the pEC50 came to 6.37 and the EC50 was 0.43 µM.

For the molecule `Cc1ccnc2sc3c(NC(=O)c4ccccc4)nn(C)c3c12` [Compound 159, N-(1,8-dimethyl-1H-pyrazolo[3′,4′:4,5]thieno[2,3-b]pyridin-3-yl)benzamide], the pEC50 is recorded as less than 5.00 and the EC50 was more than 10 µM.

Regarding `Cc1ccc2c(n1)sc1c(NC(=O)c3ccccc3)n[nH]c12` [Compound 150, N-(6-methyl-1H-pyrazolo[3′,4′:4,5]thieno[2,3-b]pyridin-3-yl)benzamide], the pEC50 is given as less than 5.00 and the EC50 is more than 10 µM.

Regarding `Cc1cc(C)c2c(n1)sc1c(NCc3ccccn3)nn(C)c12` [Compound 77, 1,6,8-trimethyl-N-(pyridin-2-ylmethyl)-1H-pyrazolo[3′,4′:4,5]thieno[2,3-b]pyridin-3-amine], the “Emax (%)*” value was 55%, the pEC50 worked out at 6.27 and the EC50 was 0.54 µM.

Consider `Cc1ccc2c(n1)sc1c(NC(=O)c3ccc(Br)cc3)n[nH]c12` [Compound 151, 4-bromo-N-(6-methyl-1H-pyrazolo[3′,4′:4,5]thieno[2,3-b]pyridin-3-yl)benzamide], for which the pEC50 is reported as less than 5.00 and the concentration for a half-maximal effect (EC50) is more than 10 µM.

Turning to `Cc1cc(C)c2c(n1)sc1c(NCc3cccs3)n[nH]c12` [Compound 36, 6,8-dimethyl-N-(thiophen-2-ylmethyl)-1H-pyrazolo[3′,4′:4,5]thieno[2,3-b]pyridin-3-amine], the “Emax (%)*” value is listed as 78%, the pEC50 is reported as 6.20 and the EC50 is 0.63 µM.

In the case of `COc1ccc(Cn2nc(N)c3sc4nc(C)c(Cl)c(C)c4c32)cc1` [Compound 161, 7-chloro-1-(4-methoxybenzyl)-6,8-dimethyl-1H-pyrazolo[3′,4′:4,5]thieno[2,3-b]pyridin-3-amine], the pEC50 is reported as less than 5.00 and the half-maximal effective concentration (EC50) is more than 10 µM.

On to `Cc1cc(C)c2c(n1)sc1c(NCC3CCCN3)nn(C)c12` (stereo not drawn) [Compound 86, 1,6,8-trimethyl-N-(pyrrolidin-2-ylmethyl)-1H-pyrazolo[3′,4′:4,5]thieno[2,3-b]pyridin-3-amine], for which the “Emax (%)*” value was found to be 40%, the pEC50 is 5.96 and the EC50 was 1.1 µM.

Regarding `Cc1cc(C)c2c(n1)sc1c(NC3CCCCC3)n[nH]c12` [Compound 132, N-cyclohexyl-6,8-dimethyl-1H-pyrazolo[3′,4′:4,5]thieno[2,3-b]pyridin-3-amine], the pEC50 is listed as less than 5.00 and the EC50 was more than 10 µM.
